pEC50: −log10 of the molar value.
What was measured:
Type in all cases: cell-based, murine
[1] = system: v-myc-expressing lines and clones; experiment: Induction of differentiation of immortalised cell lines and clones; conditions: 1mM
Procedure: For experiments in the presence of growth factors or other differentiation inducing agents, the primary cell cultures or the immortalised cell lines were cultured in the presence of one or a combination of the following: β-FGF, 1ng/ml, (Collaborative Research), EGF; 5 ng/ml or 10 ng/ml, (Collaborative Research), NGF (10 ng/ml, Collaborative Reasearch), dibutyryl cyclic adenosine monophosphate (dbcAMP, 1mM, Sigma, Heidelberg), retinoic acid (5 µM; Sigma), IL-7 (50 U/ml), TGFα (5ng/ml).
To induce differentiation in vitro several combinations of the following factors were used: retinoic acid (RA, 10 µM), NGF, β-FGF, EGF, IL-7, TGFα, dbcAMP (1mM). In addition the effect of co-culture with cortical glial cells originating from postnatal day 0 to 1 and granule neurons originating from postnatal day 6 mice was investigated.

[2] = system: metabotropic glutamate receptor(s) (mGluR) expressed by HNMMCV14.1A cells; experiment: Phosphoinositide hydrolysis: accumulation of 3H-inositol phosphates; conditions: HNMMCV14.1A cells; agonist 1 h, LiCl 10 mM; read-out: EC50 inositolphosphate accumulation
Procedure: Phosphoinositide hydrolysis was determined by measuring the accumulation of ^3H-inositol phosphates. The cells were plated in 48-well plates (Costar) at a density of 10000 cells per well and incubated for 4-5 days at 37°C, 7% CO2. Then the cells were labeled by incubation with 4 µCi of myo-2-^3H-inositol per ml medium (specific activity: […]: Amersham). After 24 h LiCl (10 mM final concentration) was added to the cells for 1 h. Agonists were then added at the concentrations indicated. The incubation was stopped after 1 h by replacing the medium with 200 µl ice-cold methanol. 400 µl of destilled water was added and the sample was directly applied to AG-1X8 ion exchange columns (AG-1X8 resin: BioRad). Free inositol and glycerophosphoryl-inositol were washed away with 16 ml destilled water followed by 10 ml 5 mM disodium-tetraborate, 60 mM sodium formate. Total ^3H-inositol phosphates (IP1, IP2, IP3) were eluted with 7 ml of 100 mM formic acid, 1 M ammonium formate. Radioactivity of the eluted ^3H-inositol phosphates was determined by liquid scintillation counting after addition of 13 ml liquid scintillation cocktail (Ultima Gold: Canberra Packard). Measurements were performed in triplicates for each experimental point. Untreated controls were set as 100% and the other values calculated in relation to this.
The columns were prepared as follows: 1 ml pipet tips were filled with one glass bead (Roth) per tip before adding 500 µl AG-1X8 resin. The resin was compressed with air and 270 µl seasand was applied. Until use they were stored at 4°C.

HC e/n XVB cells = experiment: Whole-cell patch-clamp recording of ligand-activated currents; conditions: membrane potential clamped to -70mV
Procedure: (§1) Electrophysiological setup: Membrane currents were measured with the patchclamp technique in the whole-cell recording configuration (Hamill et al. 1981, Pfluegers Arch. 391:85-100). Current signals were amplified with conventional electronics (EPC-9 amplifier, HEKA Elektronik GmbH, Lambrecht, Germany), filtered at 10kHz, and sampled at 5 kHz by an interface connected to an IBM AT-compatible computer system, which also served as a stimulus generator.
(§2) Solutions and electrodes: The standard bathing solution contained (in mM): Nacl 150, KCL 5, MgCl2 1.8, HEPES 5, and glucose 10. In some experiments an equimolar amount of NaCl was replaced by 5mM BaCl2. Recording pipettes had resistances about 5MΩ (Hilgenberg, Malsfeld, Germany). The pipettes contained (in mM): KCL 140, CaCl2 0.5, EGTA 5, MgCl2 2, and HEPES 10. The pH was adjusted to 7.4. In some experiments the pipette solution was designed to minimize the contribution of voltage-activated currents. In this case, investigating the ligand-activated currents, the pipette solution contained (in mM): CsCl 140, EGTA 10, and HEPES 10.
(§3) Ligands were dissolved in the extracellular saline solution and applied via an U-tube application system. To record ligand-induced currents, the membrane potential was clamped to -70mV. For measurements of voltage-activated currents, cells were held at -70mV and every second the membrane was stepped through a 50 msec. de- or hyperpolarising test pulse to a potential between -170 and +20 mV.

HNMMCV13.1.E = experiment: as above; conditions: 13.1.E; membrane potential clamped to -70mV
Procedure: as §1, §2, §3

Structure (SMILES)	expression of MAP-2 ([1]; cell line HNMMCV11.2.)	differentiation of the cells (morphology, markers vimentin and nestin) ([1]; v-myc-expressing lines and clones)	pEC50 [2]	ligand-activated currents (electrophysiological recordings) (HC e/n XVB cells; XV. B/ - EGF)	ligand-activated currents (electrophysiological recordings) (HC e/n XVB cells; XV. B)	ligand-activated currents (electrophysiological recordings) (HNMMCV13.1.E)
CCCC(=O)Nc1ncnc2c1ncn2[C@@H]1O[C@@H]2COP(=O)(O)O[C@H]2[C@H]1OC(=O)CCC [dbcAMP, dibutyryl cyclic adenosine monophosphate]	induction of the expression of MAP-2	partial differentiation				
N[C@@H](CCC(=O)O)C(=O)O [Glutamate, L-glutamate]			4.30	++ (++: 30-70% positive cells)	-	+ (+: 10-30% positive cells)
